# Values of other authors as cited in the Kinase Knowledgebase extract (Sharma et al. 2016).
# pIC50: −log10 of the molar value.
# Biological target: EGFR (UniProt P00533)
# Sequence (P00533 whole entry, looked up): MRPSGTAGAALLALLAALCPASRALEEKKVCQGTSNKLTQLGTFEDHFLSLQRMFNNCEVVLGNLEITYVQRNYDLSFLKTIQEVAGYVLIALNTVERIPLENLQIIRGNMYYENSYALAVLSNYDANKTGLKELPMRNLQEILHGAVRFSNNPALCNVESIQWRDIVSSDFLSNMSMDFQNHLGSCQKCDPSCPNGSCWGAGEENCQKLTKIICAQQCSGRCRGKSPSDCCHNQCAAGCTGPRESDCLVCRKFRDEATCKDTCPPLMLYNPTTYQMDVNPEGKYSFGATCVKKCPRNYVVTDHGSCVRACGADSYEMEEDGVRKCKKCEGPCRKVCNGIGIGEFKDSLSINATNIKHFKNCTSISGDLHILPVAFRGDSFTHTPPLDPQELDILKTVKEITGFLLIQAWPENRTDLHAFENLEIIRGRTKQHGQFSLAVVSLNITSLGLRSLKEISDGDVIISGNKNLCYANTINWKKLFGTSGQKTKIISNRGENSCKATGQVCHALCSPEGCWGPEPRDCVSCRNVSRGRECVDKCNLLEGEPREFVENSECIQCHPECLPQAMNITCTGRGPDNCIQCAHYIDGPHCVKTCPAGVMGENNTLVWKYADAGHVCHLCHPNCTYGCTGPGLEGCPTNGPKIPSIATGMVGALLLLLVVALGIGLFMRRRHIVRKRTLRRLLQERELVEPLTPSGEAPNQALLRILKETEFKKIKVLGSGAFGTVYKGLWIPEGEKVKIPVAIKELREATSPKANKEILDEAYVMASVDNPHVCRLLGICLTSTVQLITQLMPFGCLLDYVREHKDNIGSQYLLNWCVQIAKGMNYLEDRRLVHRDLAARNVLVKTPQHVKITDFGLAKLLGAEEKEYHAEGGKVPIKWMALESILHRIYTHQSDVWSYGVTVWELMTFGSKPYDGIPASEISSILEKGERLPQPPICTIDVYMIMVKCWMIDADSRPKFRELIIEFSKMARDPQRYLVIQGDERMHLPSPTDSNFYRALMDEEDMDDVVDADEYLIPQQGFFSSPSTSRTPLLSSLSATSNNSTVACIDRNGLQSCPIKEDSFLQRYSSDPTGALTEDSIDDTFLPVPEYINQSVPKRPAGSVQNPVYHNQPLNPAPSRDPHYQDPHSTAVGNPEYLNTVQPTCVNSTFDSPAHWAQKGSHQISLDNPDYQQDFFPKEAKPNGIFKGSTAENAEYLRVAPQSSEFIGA
row,Structure (SMILES),pIC50
1,COc1cc2c(Nc3ccc(O)c(Cl)c3F)ncnc2cc1OCC1CCN(C)CC1,7.00
2,COc1cc2c(Nc3cccc(Cl)c3F)ncnc2cc1OC[C@@H]1CCCN(C)C1,7.00
3,COc1cc2c(Nc3cccc(Br)c3F)ncnc2cc1OCCC1CCNCC1,6.70
4,COc1cc2c(Nc3cccc(Br)c3F)ncnc2cc1OCC1CCNCC1,6.70
5,COc1cc2c(Nc3cccc(Cl)c3F)ncnc2cc1OCCC1CCN(C)CC1,6.52
6,COc1cc2c(Nc3cccc(Cl)c3F)ncnc2cc1OC/C=C/CN1CCCC1,7.05
7,c1ccc(Nc2ncnc3[nH]c4ccccc4c23)cc1,5.16
8,COc1cc2c(Nc3cc(F)cc(Cl)c3F)ncnc2cc1OCC1CCNCC1,6.30
9,Nc1cccc(-c2cc3c(Nc4cccc(Cl)c4)ncnc3[nH]2)c1,8.41
10,Cc1[nH]c2ncnc(NCc3cccc(Cl)c3)c2c1C,5.97
11,COc1cc2c(Nc3cccc(Cl)c3F)ncnc2cc1OCCCN1CCOCC1,7.00
12,COc1cc2c(Nc3cccc(Cl)c3F)ncnc2cc1OCCN1CCN(C)CC1,6.70
13,COc1cc2c(Nc3cc(F)cc(Br)c3F)ncnc2cc1OCC1CCN(C)CC1,6.52
14,O=C(O)c1ccc(-c2cc3c(Nc4cccc(Cl)c4)ncnc3[nH]2)cc1,9.00
15,COc1cc2c(Nc3cccc(C)c3F)ncnc2cc1OCC1CCNCC1,6.30
16,COc1cc2c(Nc3cccc(Br)c3F)ncnc2cc1OCCCN1CCN(C)CC1,7.00
17,COc1cc2c(Nc3cccc(Cl)c3F)ncnc2cc1OCCN1CCOCC1,6.40
18,COc1cc2c(Nc3cccc(C#N)c3F)ncnc2cc1OC/C=C/CN1CCCC1,6.10

row,Structure (SMILES),pIC50
1,COc1ccc(-c2cc3c(Nc4cccc(Cl)c4)ncnc3[nH]2)cc1,7.82
2,COc1cc2c(Nc3cccc(Br)c3F)ncnc2cc1OC[C@H]1CCCN(C)C1,7.00
3,COc1cc2c(Nc3cccc(Br)c3F)ncnc2cc1OC[C@@H]1CCCN(C)C1,6.70
4,Nc1ccc(-c2cc3c(Nc4cccc(Cl)c4)ncnc3[nH]2)cc1,8.52
5,COc1cc2c(Nc3cc(F)cc(Br)c3F)ncnc2cc1OCC1CCNCC1,6.35
6,COc1cc2c(Nc3cccc(Cl)c3F)ncnc2cc1OCCCN1CCN(C)CC1,7.12
7,Oc1ccc(-c2cc3c(Nc4cccc(Cl)c4)ncnc3[nH]2)cc1,8.52
8,COc1cc2c(Nc3cc(F)cc(Cl)c3F)ncnc2cc1OCC1CCN(C)CC1,6.35
9,Clc1cccc(Nc2ncnc3[nH]c(-c4ccccn4)cc23)c1,8.15
10,COc1cc2c(Nc3cccc(Br)c3F)ncnc2cc1OC/C=C/CN1CCCC1,7.00
11,COc1cc2c(Nc3cccc(Cl)c3F)ncnc2cc1OCC1CCNCC1,6.52
12,COc1cc2c(Nc3cccc(Cl)c3F)ncnc2cc1OCCCN1CCCC1,7.00
13,COc1cc2c(Nc3cccc(Br)c3F)ncnc2cc1OCCC1CCN(C)CC1,6.70
14,COCCOc1cc2ncnc(Nc3cccc(Cl)c3F)c2cc1OC,7.00
15,COc1cc2c(Nc3cccc(Cl)c3F)ncnc2cc1OCCN(C)c1ccncc1,6.52
16,COc1cc2c(Nc3ccc(O)c(C)c3F)ncnc2cc1OCC1CCN(C)CC1,6.52
17,COc1cc2c(Nc3cccc(C)c3F)ncnc2cc1OCC1CCN(C)CC1,6.00

# More lines, now with the values ahead:
row,pIC50,Structure (SMILES)
1,8.52,CNC(=O)c1cc2c(Nc3cccc(Cl)c3)ncnc2[nH]1
2,9.00,O=S(=O)(O)CCNc1cc2ncnc(Nc3cccc(Br)c3)c2cn1
3,8.52,CN(CC(O)CO)c1cc2ncnc(Nc3cccc(Br)c3)c2cn1 (stereo unspecified)
4,9.70,O=C(O)CCCNc1cc2ncnc(Nc3cccc(Br)c3)c2cn1
5,9.00,CNc1cc2ncnc(Nc3cccc(C)c3)c2cn1
6,8.40,OCC(O)C(O)C(O)C(O)CNc1cc2ncnc(Nc3cccc(Br)c3)c2cn1 (stereo unspecified)
7,7.82,CN(CC(=O)O)c1cc2ncnc(Nc3cccc(Br)c3)c2cn1
8,8.10,CN(C)CCCNc1cc2ncnc(Nc3cccc(Br)c3)c2cn1
9,8.15,NNc1cc2ncnc(Nc3cccc(Br)c3)c2cn1
10,8.52,CN(CC(O)C(O)C(O)C(O)CO)c1cc2ncnc(Nc3cccc(Br)c3)c2cn1 (stereo unspecified)
11,8.08,CN(C)CCCCCNc1cc2ncnc(Nc3cccc(Br)c3)c2cn1
12,10.05,CN(C)c1cc2ncnc(Nc3cccc(Br)c3)c2cn1
13,7.09,Clc1ncc2ncnc(Nc3cccc(Br)c3)c2n1
14,8.70,CN(CCO)c1cc2ncnc(Nc3cccc(Br)c3)c2cn1
15,9.70,OCCNc1cc2ncnc(Nc3cccc(Br)c3)c2cn1
16,8.05,OCCN(CCO)CCNc1cc2ncnc(Nc3cccc(Br)c3)c2cn1
17,9.15,[O-][N+]1(CCCNc2cc3ncnc(Nc4cccc(Br)c4)c3cn2)CCOCC1
18,10.00,CNc1cc2ncnc(Nc3cccc(Br)c3)c2cn1
19,9.12,CNc1ncc2ncnc(Nc3cccc(Br)c3)c2n1
20,8.47,Cc1cccc(Nc2ncnc3cc(NCCCn4ccnc4)ncc23)c1
21,8.52,Brc1cccc(Nc2ncnc3cc(NCCN4CCOCC4)ncc23)c1
